ChEMBL document CHEMBL4304804, “Synthesis and biological evaluation of calycanthaceous alkaloid analogs” (Bioorg Med Chem, 2019)
pIC50: −log10 of the molar value. Converted amounts (≈) assume the structure as drawn. The source made the active and inactive calls. The calls are words filed in the database; no cut-off is given here.

Experiments:
Candida tropicalis = test: Antifungal activity against Candida tropicalis assessed as reduction in fungal cell growth incubated for 48 hrs by serial dilution method; assay type: functional
[1] = test system: Fusarium oxysporum f. sp. vasinfectum; test: Antifungal activity against Fusarium oxysporum sp. vasinfectum assessed as reduction in fungal cell growth incubated for 48 hrs by serial dilution method; assay type: functional
Staphylococcus aureus = test: Antibacterial activity against Staphylococcus aureus assessed as reduction in bacterial cell growth incubated for 24 hrs by filter paper assay; assay type: functional
Aspergillus niger = test: Antifungal activity against Aspergillus niger assessed as reduction in fungal cell growth incubated for 48 hrs by serial dilution method; assay type: functional
[2] = test system: Colletotrichum orbiculare; test: Antifungal activity against Colletotrichum orbiculare assessed as reduction in fungal cell growth incubated for 48 hrs by serial dilution method; assay type: functional
Escherichia coli = test: Antibacterial activity against Escherichia coli assessed as reduction in bacterial cell growth incubated for 24 hrs by filter paper assay; assay type: functional
Verticillium dahliae = test: Antifungal activity against Verticillium dahliae assessed as reduction in fungal cell growth incubated for 48 hrs by serial dilution method; assay type: functional
Curvularia lunata = test: Antifungal activity against Curvularia lunata assessed as reduction in fungal cell growth incubated for 48 hrs by serial dilution method; assay type: functional
Pseudomonas aeruginosa = test: Antibacterial activity against Pseudomonas aeruginosa assessed as reduction in bacterial cell growth incubated for 24 hrs by filter paper assay; assay type: functional
Acetylcholinesterase = Acetylcholinesterase (Electrophorus electricus, UniProt O42275); test: Inhibition of electric eel AChE by Ellman's colorimetry
Fusarium oxysporum = test: Antifungal activity against Fusarium oxysporum assessed as reduction in fungal cell growth incubated for 48 hrs by serial dilution method; assay type: functional
Bacillus cereus = test: Antibacterial activity against Bacillus cereus assessed as reduction in bacterial cell growth incubated for 24 hrs by filter paper assay; assay type: functional
[3] = molecular target: Acetylcholinesterase (Electrophorus electricus) (UniProt O42275); test: Inhibition of electric eel AChE by at 1 mg/ml Ellman's colorimetry relative to control
Penicillium citrinum = test: Antifungal activity against Penicillium citrinum assessed as reduction in fungal cell growth incubated for 48 hrs by serial dilution method; assay type: functional
Candida = test: Antifungal activity against […] assessed as reduction in fungal cell growth incubated for 48 hrs by serial dilution method; assay type: functional
Aspergillus flavus = test: Antifungal activity against Aspergillus flavus assessed as reduction in fungal cell growth incubated for 48 hrs by serial dilution method; assay type: functional
Cytospora = test: Antifungal activity against Cytospora juglandis assessed as reduction in fungal cell growth incubated for 48 hrs by serial dilution method; assay type: functional
Cryptococcus neoformans = test: Antifungal activity against Cryptococcus neoformans assessed as reduction in fungal cell growth incubated for 48 hrs by serial dilution method; assay type: functional
Ralstonia solanacearum = test: Antibacterial activity against Ralstonia solanacearum assessed as reduction in bacterial cell growth incubated for 24 hrs by filter paper assay; assay type: functional

Sequence of Acetylcholinesterase (O42275 whole entry): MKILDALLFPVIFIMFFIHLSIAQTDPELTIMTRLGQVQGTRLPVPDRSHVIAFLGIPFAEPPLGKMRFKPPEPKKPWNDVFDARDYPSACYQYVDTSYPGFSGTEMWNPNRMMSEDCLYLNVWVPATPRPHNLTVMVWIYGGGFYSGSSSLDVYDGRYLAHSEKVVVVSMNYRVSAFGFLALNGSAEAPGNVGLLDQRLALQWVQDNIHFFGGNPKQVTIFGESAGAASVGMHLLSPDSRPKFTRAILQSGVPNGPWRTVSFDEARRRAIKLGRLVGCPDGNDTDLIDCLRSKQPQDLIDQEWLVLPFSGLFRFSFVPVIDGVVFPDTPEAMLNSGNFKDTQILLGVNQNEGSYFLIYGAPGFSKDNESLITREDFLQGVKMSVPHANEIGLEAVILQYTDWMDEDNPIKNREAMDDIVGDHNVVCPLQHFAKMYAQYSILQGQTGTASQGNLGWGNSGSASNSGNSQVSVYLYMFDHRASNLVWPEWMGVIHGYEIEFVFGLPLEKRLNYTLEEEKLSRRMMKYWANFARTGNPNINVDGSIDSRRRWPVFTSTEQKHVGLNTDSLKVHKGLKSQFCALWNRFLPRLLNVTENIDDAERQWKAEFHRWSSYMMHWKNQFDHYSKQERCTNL
Sequence of Acetylcholinesterase (Electrophorus electricus) (O42275 24-633 limits assumed): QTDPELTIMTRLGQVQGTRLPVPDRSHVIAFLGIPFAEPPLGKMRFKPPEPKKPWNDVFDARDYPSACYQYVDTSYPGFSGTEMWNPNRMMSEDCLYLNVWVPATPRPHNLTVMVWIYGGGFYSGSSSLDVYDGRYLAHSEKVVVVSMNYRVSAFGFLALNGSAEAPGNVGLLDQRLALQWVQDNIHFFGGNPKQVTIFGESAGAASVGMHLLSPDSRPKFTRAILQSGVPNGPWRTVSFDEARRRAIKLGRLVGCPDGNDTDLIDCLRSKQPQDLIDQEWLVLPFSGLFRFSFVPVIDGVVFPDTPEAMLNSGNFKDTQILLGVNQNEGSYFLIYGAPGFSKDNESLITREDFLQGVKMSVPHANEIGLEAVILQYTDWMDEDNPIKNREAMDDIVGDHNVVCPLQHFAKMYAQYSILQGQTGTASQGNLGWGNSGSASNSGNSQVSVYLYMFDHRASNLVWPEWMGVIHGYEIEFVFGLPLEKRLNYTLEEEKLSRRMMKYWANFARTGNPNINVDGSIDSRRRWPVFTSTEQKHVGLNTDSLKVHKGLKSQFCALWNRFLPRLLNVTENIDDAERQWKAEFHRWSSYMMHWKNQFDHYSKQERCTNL

| Compound | MIC (Candida tropicalis) | MIC [1] | MIC (Staphylococcus aureus) | MIC (Aspergillus niger) | MIC [2] | MIC (Escherichia coli) | MIC (Verticillium dahliae) | MIC (Curvularia lunata) | MIC (Pseudomonas aeruginosa) | pIC50 (Acetylcholinesterase) | MIC (Fusarium oxysporum) | MIC (Bacillus cereus) | inhibition [3] | MIC (Penicillium citrinum) | MIC (Candida) | MIC (Aspergillus flavus) | MIC (Cytospora) | MIC (Cryptococcus neoformans) | MIC (Ralstonia solanacearum) |
| --- | --- | --- | --- | --- | --- | --- | --- | --- | --- | --- | --- | --- | --- | --- | --- | --- | --- | --- | --- |
| Cc1ccc(S(=O)(=O)N2CCC3(Cc4ccccc4C)c4ccccc4N(Cc4ccccc4C)C23)cc1 (configuration not stated) | 250 µg/mL (≈ 478 µM) | 250 µg/mL (≈ 478 µM) | 250 µg/mL (≈ 478 µM) | 250 µg/mL (≈ 478 µM) | 250 µg/mL (≈ 478 µM) | 250 µg/mL (≈ 478 µM) | 62.5 µg/mL (≈ 120 µM) | inactive | inactive | 6.68 | 250 µg/mL (≈ 478 µM) | inactive | > 80% | inactive | 250 µg/mL (≈ 478 µM) | 250 µg/mL (≈ 478 µM) | 250 µg/mL (≈ 478 µM) | inactive | 250 µg/mL (≈ 478 µM) |
| Cc1cccc(CN2c3ccccc3C3(Cc4cccc(C)c4)CCN(C(=O)c4ccccc4)C23)c1 (configuration not stated) | inactive | 62.5 µg/mL (≈ 132 µM) | inactive | 250 µg/mL (≈ 529 µM) | 250 µg/mL (≈ 529 µM) | inactive | 31.2 µg/mL (≈ 66.1 µM) | inactive | inactive | 4.35 | 250 µg/mL (≈ 529 µM) | inactive |  | 250 µg/mL (≈ 529 µM) | inactive | 250 µg/mL (≈ 529 µM) | 62.5 µg/mL (≈ 132 µM) | inactive | inactive |
| Cc1ccc(S(=O)(=O)N2CCC3(Cc4cccc(C)c4)c4ccccc4N(Cc4cccc(C)c4)C23)cc1 (configuration not stated) | inactive | 125 µg/mL (≈ 239 µM) | inactive | 250 µg/mL (≈ 478 µM) | 250 µg/mL (≈ 478 µM) | inactive | 62.5 µg/mL (≈ 120 µM) | inactive | inactive | 4.89 | 250 µg/mL (≈ 478 µM) | 125 µg/mL (≈ 239 µM) |  | inactive | 250 µg/mL (≈ 478 µM) | 250 µg/mL (≈ 478 µM) | 250 µg/mL (≈ 478 µM) | inactive | inactive |
| Cc1cccc(CN2c3ccccc3C3(Cc4cccc(C)c4)CCN(C(=O)C(F)(F)F)C23)c1 (configuration not stated) | inactive | inactive | inactive | inactive | inactive | inactive | inactive | inactive | inactive | 5.47 | 250 µg/mL (≈ 538 µM) | inactive |  | inactive | inactive | 250 µg/mL (≈ 538 µM) | 250 µg/mL (≈ 538 µM) | inactive | inactive |
| CN1c2ccccc2C2(O)CCCN(C(=O)c3ccccc3F)C12 (configuration not stated) | inactive | inactive | inactive | inactive | inactive | 250 µg/mL (≈ 766 µM) | 125 µg/mL (≈ 383 µM) | inactive | 250 µg/mL (≈ 766 µM) | 6.01 | inactive | inactive |  | inactive | inactive | inactive | inactive | inactive | 125 µg/mL (≈ 383 µM) |
| CCCCCCC(=O)N1CCC2(Cc3cccc(C)c3)c3ccccc3N(Cc3cccc(C)c3)C12 (configuration not stated) | 250 µg/mL (≈ 520 µM) | 250 µg/mL (≈ 520 µM) | 250 µg/mL (≈ 520 µM) | 250 µg/mL (≈ 520 µM) | 250 µg/mL (≈ 520 µM) | 250 µg/mL (≈ 520 µM) | 125 µg/mL (≈ 260 µM) | 62.5 µg/mL (≈ 130 µM) | 125 µg/mL (≈ 260 µM) | 4.74 | 125 µg/mL (≈ 260 µM) | 125 µg/mL (≈ 260 µM) |  | 250 µg/mL (≈ 520 µM) | 250 µg/mL (≈ 520 µM) | 250 µg/mL (≈ 520 µM) | 62.5 µg/mL (≈ 130 µM) | inactive | 125 µg/mL (≈ 260 µM) |
| Cc1cccc(C(=O)N2CCCC3(O)c4ccccc4N(C)C23)c1 (configuration not stated) | 250 µg/mL (≈ 775 µM) | inactive | 250 µg/mL (≈ 775 µM) | inactive | inactive | inactive | 250 µg/mL (≈ 775 µM) | inactive | 250 µg/mL (≈ 775 µM) | 5.26 | inactive | inactive |  | inactive | inactive | inactive | inactive | inactive | 62.5 µg/mL (≈ 194 µM) |
